Results on 20 compounds are retold here after patent US10407398B2, “Inhibitors of Pseudomonas aeruginosa LecB” (priority 2015, dated 2019).

Test [1] addresses T1, LecBPAO1 (Pseudomonas aeruginosa, UniProt Q9HYN5).
T1 construct: made in house
In words: biochemical. In kind it is binding.

The target in test [2] is T2, LecBPA14 (Pseudomonas aeruginosa, UniProt A0A0H2ZE85). In words: biochemical. The test is classed as binding, Pseudomonas aeruginosa UCBPP-PA14. The method, then:
The measured intensities were reduced by buffer values and fluorescence polarization was calculated. The data were analyzed using BMG Labtech MARS software and/or with Graphpad Prism and fitted according to the four parameter variable slope model. […] A minimum of three independent measurements of triplicates each was performed for every ligand.

Test [3] concerns the target T1, LecBPAO1. In words: Microcalorimetric assay (ITC) for direct binding. The following applies: for N: ITC binding stoichiometry, one site binding model; for N / ΔG / ΔH / −TΔS: LecBPAO1; for ΔG / ΔH / −TΔS: ITC, 25° C. On the procedure:
(§1) The temperature of the sample cell was 25° C. The titration was performed with a solution of ligands in the same buffer.

The target in test [4] is T2, LecBPA14. In words: biochemical. The test is classed as binding, Pseudomonas aeruginosa UCBPP-PA14. Conditions: for N: ITC binding stoichiometry, one site binding model; for N / ΔG / ΔH / −TΔS: LecBPA14; for ΔG / ΔH / −TΔS: ITC, 25° C. The method, then:
as §1

T2 sequence (A0A0H2ZE85 entry or part of it): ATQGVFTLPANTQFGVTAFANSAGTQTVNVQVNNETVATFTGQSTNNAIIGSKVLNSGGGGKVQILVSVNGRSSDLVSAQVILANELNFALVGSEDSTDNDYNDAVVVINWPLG
T1 sequence (Q9HYN5 entry or part of it): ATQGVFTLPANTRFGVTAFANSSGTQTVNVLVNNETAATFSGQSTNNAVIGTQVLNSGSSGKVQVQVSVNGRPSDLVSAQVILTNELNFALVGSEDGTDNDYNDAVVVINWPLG

For `CC1OCC(O)C(O)[C@@H]1O` (stereo partly drawn) [drawing 74, 1-deoxy-L-fucose, reference compound], the IC50 on LecBPAO1 [1] came to 1550 ± 500 nM; against LecBPA14 [2], 600 ± 140 nM.
On the same counts, the results for `CCCC[C@@]1(O)C(C)OCC(O)C1O` (stereo partly drawn) [drawing 84, 1-deoxy-4(S)—C-(butyl) L-fucose] are 650 ± 10 nM and 230 ± 30 nM.
With `CCc1ccc(S(=O)(=O)NC[C@H]2OC(C)[C@@H](O)C(O)C2O)s1` (some centres unmarked), the results for the IC50 against LecBPAO1 [1] and against LecBPA14 [2] were 4220 ± 1130 nM and 440 ± 40 nM, respectively.
On the same counts, the results for `Cc1cc(S(=O)(=O)NC[C@H]2OC(C)[C@@H](O)C(O)C2O)c(C(F)(F)F)o1` (some centres unmarked) are 3880 ± 700 nM and 490 ± 110 nM.
The matching figures for `Cc1csc(S(=O)(=O)NC[C@H]2OC(C)[C@@H](O)C(O)C2O)c1` (some centres unmarked): 2510 ± 540 nM and 310 ± 40 nM.
The matching figures for `Cc1cc(C)c(S(=O)(=O)NC[C@H]2OC(C)[C@@H](O)C(O)C2O)c(C)c1` (some centres unmarked) [drawing 93]: 980 ± 60 nM and 420 ± 200 nM.
Regarding `Cc1cc(C)c(S(=O)(=O)NC[C@H]2OC(C)[C@@H](O)C(O)C2O)c(C)c1` (some centres unmarked) [drawing 119], on LecBPAO1 [3], the Kd came out at 1270 ± 120 nM, the N turned out to be 0.99 ± 0.04, the “ΔG” value was -8.03 ± 0.0574 kcal/mol and the “ΔH” value was -8.41 ± 0.0096 kcal/mol. Also, the “−TΔS” value at LecBPAO1 [3] is 0.363 ± 0.0502 kcal/mol. Further, at LecBPA14 [4], the dissociation constant Kd was determined as 310 ± 50 nM, the N is reported as 0.98 ± 0.05, the “ΔG” value is -8.87 ± 0.105 kcal/mol and the “ΔH” value is -9.03 ± 0.88 kcal/mol. For the same compound, the “−TΔS” value at LecBPA14 [4] stood at 0.155 ± 0.774 kcal/mol.
With `CCCCCC[C@@]1(O)C(C)OCC(O)C1O` (stereo partly drawn) [1-deoxy-4(S)—C-(hexyl) L-fucose], the results for the 50% inhibitory concentration (IC50) at LecBPAO1 [1] and against LecBPA14 [2] were 610 ± 90 nM and 330 ± 160 nM, respectively.
On the same counts, the results for `CC1OCC(O)C(O)(CN)[C@@H]1O` (stereo partly drawn) [1-deoxy-3(S)—C-(aminomethyl)-L-fucose] are greater than 600000 nM and greater than 300000 nM.
As to `CCCC[C@@]1(O)C(C)OCC(O)C1O` (some centres unmarked) [drawing 117], on LecBPAO1 [3], the Kd was 401 ± 84 nM, the N was 1.02 ± 0.09, the “ΔG” value was -8.75 ± 0.0956 kcal/mol and the “ΔH” value was -11.3 ± 0.12 kcal/mol. At LecBPAO1 [3], the “−TΔS” value was determined as 2.51 ± 0.186 kcal/mol. For the same compound, at LecBPA14 [4], the Kd was determined as 246 ± 47 nM, the N worked out at 1.03 ± 0.08, the “ΔG” value was -9.01 ± 0.115 kcal/mol and the “ΔH” value is -9.42 ± 0.0096 kcal/mol. In addition, the “−TΔS” value at LecBPA14 [4] was determined as 0.394 ± 0.117 kcal/mol.
Take `CC1OCC(O)C(O)[C@]1(C)O` (stereo partly drawn) [1-deoxy-4(S)—C-(methyl) L-fucose]: the IC50 at LecBPAO1 [1] is 460 ± 70 nM; on LecBPA14 [2], 170 ± 30 nM.
On the same counts, the results for `CC1O[C@H](CNS(=O)(=O)c2ccsc2)C(O)C(O)[C@@H]1O` (some centres unmarked) are 1850 ± 130 nM and 640 ± 270 nM.
Regarding `CC1OCC(O)C(O)(CNS(=O)(=O)C(C)C)[C@@H]1O` (stereo partly drawn) [1-deoxy-3(S)—C-(isopropylsulfonamidomethyl)-L-fucose], the results for the concentration for half-maximal inhibition (IC50) against LecBPAO1 [1] and on LecBPA14 [2] were greater than 600000 nM and 286000 ± 77000 nM, respectively.
`CC1OCC(O)C(C)(O)[C@@H]1O` (stereo partly drawn) [1-deoxy-3(S)—C-(methyl)-L-fucose]: the IC50 at LecBPAO1 [1] amounted to 49600 ± 7800 nM; against LecBPA14 [2], 6540 ± 1340 nM.
`CC1O[C@H](CNC(=O)/C=C/c2ccccc2)C(O)C(O)[C@@H]1O` (some centres unmarked) [drawing 118]: at LecBPAO1 [3], binding was put at a Kd of 3090 ± 840 nM, the N came out at 0.93 ± 0.01, the “ΔG” value is -7.53 ± 0.165 kcal/mol and the “ΔH” value was -7.86 ± 0.394 kcal/mol. Further, at LecBPAO1 [3], the “−TΔS” value is 0.327 ± 0.32 kcal/mol. At LecBPA14 [4], the Kd came to 2590 ± 390 nM, the N amounted to 1.07 ± 0.05, the “ΔG” value is -7.29 ± 0.523 kcal/mol and the “ΔH” value is -7.5 ± 0.344 kcal/mol. Also, the “−TΔS” value on LecBPA14 [4] worked out at 0.21 ± 0.239 kcal/mol.
Regarding `CC1O[C@H](CNC(=O)/C=C/c2ccccc2)C(O)C(O)[C@@H]1O` (some centres unmarked) [drawing 111], the IC50 turned out to be 4210 ± 940 nM on LecBPAO1 [1] and 2490 ± 200 nM against LecBPA14 [2].
Regarding `Cc1cc(S(=O)(=O)NC[C@H]2OC(C)[C@@H](O)C(O)C2O)c(C)s1` (some centres unmarked), at LecBPAO1 [3], the N is 0.98 ± 0.03, the “ΔH” value is -11.3 ± 0.287 kcal/mol and the “−TΔS” value is 3.23 ± 0.33 kcal/mol. Further, at LecBPA14 [4], the N was found to be 0.98 ± 0.06, the “ΔH” value was -9.66 ± 0.265 kcal/mol and the “−TΔS” value worked out at 0.786 ± 0.402 kcal/mol.
Take `CC(C)C(=O)NCC1(O)C(O)COC(C)[C@H]1O` (stereo partly drawn) [1-deoxy-3(S)—C-(isobutyrylamidomethyl)-L-fucose]: the IC50 against LecBPAO1 [1] came to 348000 ± 65000 nM; at LecBPA14 [2], 62600 ± 12400 nM.
On the same counts, the results for `CC1OCC(O)C(O)(C(F)(F)F)[C@@H]1O` (stereo partly drawn) [1-deoxy-3(S)—C-(trifluoromethyl)-L-fucose] are greater than 600000 nM and greater than 300000 nM.
For the compound `CC1OCC(O)C(O)[C@@]1(O)Cc1ccccc1` (stereo partly drawn) [1-deoxy-4(S)—C-(benzyl) L-fucose], the IC50 turned out to be 2610 ± 20 nM on LecBPAO1 [1] and 620 ± 80 nM against LecBPA14 [2].
